Reference: ChEMBL document CHEMBL3509549

Experiments:
[1] = Mean exposure of saquinavir mesylate estimated by AUC(0-infinity) following oral repeat dosing of 1000 mg Invirase Hard Gel Capsules capsules in healthy men; type: ADME, organism-based; settings: male, human, plasma, read-out: AUC(0-infinity)
[2] = clinical; settings: both, human, plasma, po, 1000 mg
[3] = clinical; settings: both, human, plasma, po, 1000 mg; remark: listed apart in the source
[4] = Maximum Tmax of saquinavir mesylate following oral repeat dosing of 1000 mg Invirase Hard Gel Capsules capsules in healthy human; type: ADME, organism-based; settings: both, plasma, read-out: Maximum Tmax
[5] = clinical; settings: both, human, plasma, po, 1000 mg; remark: listed apart in the source
[6] = Mean exposure of saquinavir mesylate estimated by Cmax following oral repeat dosing of 1000 mg Invirase Film-coated tablet in healthy woman; type: ADME, organism-based; settings: female, human, plasma
[7] = Geometric mean of Cmax of saquinavir mesylate following oral repeat dosing of 1000 mg Invirase Film-coated tablet in healthy human; type: ADME, organism-based; settings: both, plasma
[8] = Mean exposure of saquinavir mesylate estimated by AUC(0-infinity) following oral repeat dosing of 1000 mg Invirase Hard Gel Capsules capsules in healthy woman; type: ADME, organism-based; settings: female, human, plasma, read-out: AUC(0-infinity)
[9] = Mean exposure of saquinavir mesylate estimated by AUC(0-infinity) following oral repeat dosing of 1000 mg Invirase Film-coated tablet in healthy woman; type: ADME, organism-based; settings: female, human, plasma, read-out: AUC(0-infinity)
[10] = Mean exposure of saquinavir mesylate estimated by AUC(0-infinity) following oral repeat dosing of 1000 mg Invirase Film-coated tablet in healthy men; type: ADME, organism-based; settings: male, human, plasma, read-out: AUC(0-infinity)
[11] = Median Tmax of saquinavir mesylate following oral repeat dosing of 1000 mg Invirase Film-coated tablet in healthy human; type: ADME, organism-based; settings: both, plasma, read-out: Median Tmax
[12] = Arithmetic mean of Cmax of saquinavir mesylate following oral repeat dosing of 1000 mg Invirase Hard Gel Capsules capsules in healthy human; type: ADME, organism-based; settings: both, plasma
[13] = Arithmetic mean of AUC(0-infinity) of saquinavir mesylate following oral repeat dosing of 1000 mg Invirase Film-coated tablet in healthy human; type: ADME, organism-based; settings: both, plasma, read-out: AUC(0-infinity)
[14] = Geometric mean of AUC(0-infinity) of saquinavir mesylate following oral repeat dosing of 1000 mg Invirase Film-coated tablet in healthy human; type: ADME, organism-based; settings: both, plasma, read-out: AUC(0-infinity)
[15] = Mean exposure of saquinavir mesylate estimated by Cmax following oral repeat dosing of 1000 mg Invirase Film-coated tablet in healthy human; type: ADME, organism-based; settings: both, plasma
[16] = Mean exposure of saquinavir mesylate estimated by Cmax following oral repeat dosing of 1000 mg Invirase Hard Gel Capsules capsules in healthy human; type: ADME, organism-based; settings: both, plasma
[17] = clinical; settings: both, human, plasma, po, 1000 mg; remark: listed apart in the source
[18] = Median Tmax of saquinavir mesylate following oral repeat dosing of 1000 mg Invirase Hard Gel Capsules capsules in healthy human; type: ADME, organism-based; settings: both, plasma, read-out: Median Tmax
[19] = Minimum Tmax of saquinavir mesylate following oral repeat dosing of 1000 mg Invirase Film-coated tablet in healthy human; type: ADME, organism-based; settings: both, plasma, read-out: Minimum Tmax
[20] = Maximum Tmax of saquinavir mesylate following oral repeat dosing of 1000 mg Invirase Film-coated tablet in healthy human; type: ADME, organism-based; settings: both, plasma, read-out: Maximum Tmax
[21] = Mean exposure of saquinavir mesylate estimated by Cmax following oral repeat dosing of 1000 mg Invirase Film-coated tablet in healthy men; type: ADME, organism-based; settings: male, human, plasma
[22] = Arithmetic mean of Cmax of saquinavir mesylate following oral repeat dosing of 1000 mg Invirase Film-coated tablet in healthy human; type: ADME, organism-based; settings: both, plasma
[23] = Arithmetic mean of AUC(0-infinity) of saquinavir mesylate following oral repeat dosing of 1000 mg Invirase Hard Gel Capsules capsules in healthy human; type: ADME, organism-based; settings: both, plasma, read-out: AUC(0-infinity)
[24] = Mean exposure of saquinavir mesylate estimated by Cmax following oral repeat dosing of 1000 mg Invirase Hard Gel Capsules capsules in healthy woman; type: ADME, organism-based; settings: female, human, plasma
[25] = Mean exposure of saquinavir mesylate estimated by Cmax following oral repeat dosing of 1000 mg Invirase Hard Gel Capsules capsules in healthy men; type: ADME, organism-based; settings: male, human, plasma
[26] = Minimum Tmax of saquinavir mesylate following oral repeat dosing of 1000 mg Invirase Hard Gel Capsules capsules in healthy human; type: ADME, organism-based, Plasma; settings: in vivo
[27] = Geometric mean of Cmax of saquinavir mesylate following oral repeat dosing of 1000 mg Invirase Hard Gel Capsules capsules in healthy human; type: ADME, organism-based; settings: both, plasma

SMILES: CC(C)(C)NC(=O)[C@@H]1C[C@@H]2CCCC[C@@H]2CN1C[C@@H](O)[C@H](Cc1ccccc1)NC(=O)[C@H](CC(N)=O)NC(=O)c1ccc2ccccc2n1
- AUC(0-inf) [1]: 1.04 µg·h/mL
- half-life [2]: 7.89 h
- half-life [3]: 7.51 h
- Tmax [4]: 10 h
- half-life [5]: 7.73 h
- Cmax [6]: 0.395 µg/mL
- Cmax [7]: 0.332 µg/mL
- AUC(0-inf) [8]: 1.09 µg·h/mL
- AUC(0-inf) [9]: 1.49 µg·h/mL
- AUC(0-inf) [10]: 1.03 µg·h/mL
- Tmax [11]: 3.88 h
- Cmax [12]: 0.348 µg/mL
- AUC(0-inf) [13]: 1.51 µg·h/mL
- AUC(0-inf) [14]: 1.24 µg·h/mL
- Cmax [15]: 0.332 µg/mL
- Cmax [16]: 0.285 µg/mL
- half-life [17]: 8.29 h
- Tmax [18]: 4.37 h
- Tmax [19]: 1.02 h
- Tmax [20]: 6 h
- Cmax [21]: 0.278 µg/mL
- Cmax [22]: 0.404 µg/mL
- AUC(0-inf) [23]: 1.19 µg·h/mL
- Cmax [24]: 0.306 µg/mL
- Cmax [25]: 0.265 µg/mL
- Minimum Tmax [26]: 1 h
- Cmax [27]: 0.285 µg/mL
